Earlier results, collected in US20260115111A1, “METHOD FOR IMPROVING THE TACTILE SENSATION OF DYED KERATINOUS MATERIAL, ESPECIALLY HUMAN HAIR” (Henkel AG & Co. KGaA, priority 2019, published 2026).

Details: 25° C.

Structure (SMILES) | solubility in water
O=S(=O)([O-])c1ccc(N=Nc2c(O)ccc3ccccc23)cc1.[Na+] [Acid Orange 7, sodium salt of 4-[(2-hydroxy-1-naphthyl)azo]benzene sulphonate] | more than 7 g/L
O=C([O-])c1c(Cl)c(Cl)c(Cl)c(Cl)c1-c1c2c(Br)cc(=O)c(Br)c-2oc2c(Br)c(O)cc(Br)c12.O=C([O-])c1c(Cl)c(Cl)c(Cl)c(Cl)c1-c1c2c(Br)cc(=O)c(Br)c-2oc2c(Br)c(O)cc(Br)c12.[Na+].[Na+] [Acid Red 92, disodium salt of 3,4,5,6-tetrachloro-2-(1,4,5,8-tetrabromo-6-hydroxy-3-oxoxanthen-9-yl)benzoic acid] | greater than 10 g/L
O=C([O-])C1=NN(c2ccc(S(=O)(=O)[O-])cc2)C(=O)C1N=Nc1ccc(S(=O)(=O)[O-])cc1.[Na+].[Na+].[Na+] (centres unmarked) [Acid Yellow 23, trisodium salt of 4,5-dihydro-5-oxo-1-(4-sulfophenyl)-4-((4-sulfophenyl)azo)-1H-pyrazole-3-carboxylic acid] | highly soluble
Nc1cc(S(=O)(=O)[O-])cc2cc(S(=O)(=O)[O-])c(N=Nc3ccccc3)c(O)c12.[Na+].[Na+] [Acid Red 33, diantrium salt of 5-amino-4-hydroxy-3-(phenylazo)-naphthalene-2,7-disulphonate] | 2500 µg/mL
CCN(Cc1cccc(S(=O)(=O)[O-])c1)c1ccc(C(=C2C=CC(=[N+](CC)Cc3cccc(S(=O)(=O)[O-])c3)C=C2)c2ccccc2S(=O)(=O)[O-])cc1.[Na+].[Na+] [Acid Blue 9] | more than 20 wt. %
